{"source": "patent US11591336B2", "about": "(Relay Therapeutics, Inc., priority 2017, dated 2023)", "note": "Where a name gives a salt, the structure may show the parent alone."}
{"biological_target": "SHP2 (Homo sapiens (Human), UniProt Q06124)", "sequence (Q06124 whole entry)": "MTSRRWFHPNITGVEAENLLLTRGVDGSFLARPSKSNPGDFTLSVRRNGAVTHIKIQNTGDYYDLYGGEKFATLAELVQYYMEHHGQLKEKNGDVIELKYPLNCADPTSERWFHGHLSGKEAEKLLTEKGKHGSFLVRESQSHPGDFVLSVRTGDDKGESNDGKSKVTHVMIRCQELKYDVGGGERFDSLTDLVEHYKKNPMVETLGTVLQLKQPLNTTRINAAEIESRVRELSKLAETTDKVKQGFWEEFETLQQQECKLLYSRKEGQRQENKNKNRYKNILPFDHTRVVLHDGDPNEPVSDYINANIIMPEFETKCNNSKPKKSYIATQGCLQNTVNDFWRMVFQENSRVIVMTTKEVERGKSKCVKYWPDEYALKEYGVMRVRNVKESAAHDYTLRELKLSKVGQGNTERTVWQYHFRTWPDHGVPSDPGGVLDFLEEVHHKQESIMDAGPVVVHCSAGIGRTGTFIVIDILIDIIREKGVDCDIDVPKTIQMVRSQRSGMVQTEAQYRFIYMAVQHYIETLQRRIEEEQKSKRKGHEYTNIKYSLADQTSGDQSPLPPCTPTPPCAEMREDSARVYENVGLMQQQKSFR", "assay": "SHP2 Allosteric Inhibition Assay (DiFMUP prompt fluorescence)", "assay_type": "biochemical", "conditions": "0.25 nM SHP2 activated with 0.5 μM peptide IRS1_pY1172(dPEG8)pY1222; substrate DiFMUP 100 μM; 25° C.", "units": {"IC50": "nM"}}
{"smiles": "NS(=O)(=O)C1CCCN(c2cnc3c(N4CCCc5ncccc54)n[nH]c3n2)C1", "note": "(centres unmarked) [Compound 137]", "IC50": "< 1000"}
{"smiles": "OCC1CCCCN1c1cnc2c(N3CCCc4ncccc43)n[nH]c2n1", "note": "(centres unmarked) [Compound 138]", "IC50": "< 1000"}
{"smiles": "c1ccc(CC2CCCN(c3cnc4c(N5CCCc6ncccc65)n[nH]c4n3)C2)cc1", "note": "(centres unmarked) [Compound 139]", "IC50": "< 1000"}
{"smiles": "c1cncc(COC2CCN(c3cnc4c(N5CCCc6ncccc65)n[nH]c4n3)CC2)c1", "note": "[Compound 140]", "IC50": "≥ 10000"}
{"smiles": "CC1(C)CCN(c2cnc3c(N4CCCc5ncccc54)n[nH]c3n2)CC1", "note": "[Compound 141]", "IC50": "≥ 10000"}
{"smiles": "c1ccc(OC2CCCN(c3cnc4c(N5CCCc6ncccc65)n[nH]c4n3)C2)cc1", "note": "(centres unmarked) [Compound 142]", "IC50": "≥ 10000"}
{"smiles": "OC1CCCN(c2cnc3c(N4CCCc5ncccc54)n[nH]c3n2)C1", "note": "(centres unmarked) [Compound 143]", "IC50": "≥ 10000"}
{"smiles": "c1ccc(CC2CCCN2c2cnc3c(N4CCCc5ncccc54)n[nH]c3n2)cc1", "note": "(centres unmarked) [Compound 144]", "IC50": "≥ 10000"}
{"smiles": "CC1(CO)CCN(c2cnc3c(N4CCCc5ncccc54)n[nH]c3n2)CC1", "note": "[Compound 145]", "IC50": "≥ 10000"}
{"smiles": "c1ccc(CC2CCN(c3cnc4c(N5CCCc6ncccc65)n[nH]c4n3)C2)cc1", "note": "(centres unmarked) [Compound 146]", "IC50": "≥ 10000"}
{"smiles": "c1ccc(C2CCCN2c2cnc3c(N4CCCc5ncccc54)n[nH]c3n2)cc1", "note": "(centres unmarked) [Compound 147]", "IC50": "≥ 10000"}
{"smiles": "CC1CCCCN1c1cnc2c(N3CCCc4ncccc43)n[nH]c2n1", "note": "(centres unmarked) [Compound 148]", "IC50": "≥ 10000"}
{"smiles": "NC(=O)C1CCCN(c2cnc3c(N4CCCc5ncccc54)n[nH]c3n2)C1", "note": "(centres unmarked) [Compound 149]", "IC50": "≥ 10000"}
{"smiles": "NC[C@@H]1C[C@H]2CC[C@@H](C1)N2c1cnc2c(N3CCCc4ncccc43)n[nH]c2n1", "note": "[Compound 150]", "IC50": "< 1000"}
{"smiles": "c1ccc(C2CCN(c3cnc4c(N5CCCc6ncccc65)n[nH]c4n3)C2)cc1", "note": "(centres unmarked) [Compound 151]", "IC50": "≥ 10000"}
{"smiles": "c1ccc(C2CCCN(c3cnc4c(N5CCCc6ncccc65)n[nH]c4n3)C2)cc1", "note": "(centres unmarked) [Compound 152]", "IC50": "≥ 10000"}
{"smiles": "CCC1(C)CCN(c2cnc3c(N4CCCc5ncccc54)n[nH]c3n2)CC1", "note": "[Compound 153]", "IC50": "≥ 10000"}
{"smiles": "c1cnc2c(c1)N(c1n[nH]c3nc(N4CCCCC4)cnc13)CCC2", "note": "[Compound 155]", "IC50": "≥ 10000"}
{"smiles": "c1cncc(COC2CCCN(c3cnc4c(N5CCCc6ncccc65)n[nH]c4n3)C2)c1", "note": "(centres unmarked) [Compound 156]", "IC50": "≥ 10000"}
{"smiles": "NC(=O)C1CCN(c2cnc3c(N4CCCc5ncccc54)n[nH]c3n2)CC1", "note": "[Compound 157]", "IC50": "1000 to 10000"}
{"smiles": "NC(=O)NC1CCN(c2cnc3c(N4CCCc5ncccc54)n[nH]c3n2)CC1", "note": "[Compound 160]", "IC50": "≥ 10000"}
{"smiles": "c1ccc(CC2CCCCN2c2cnc3c(N4CCCc5ncccc54)n[nH]c3n2)cc1", "note": "(centres unmarked) [Compound 161]", "IC50": "≥ 10000"}
{"smiles": "c1ccc(C2CCCCN2c2cnc3c(N4CCCc5ncccc54)n[nH]c3n2)cc1", "note": "(centres unmarked) [Compound 162]", "IC50": "≥ 10000"}
{"smiles": "CC1(CN)CCN(c2cnc3c(N4CCOc5ccccc54)n[nH]c3n2)CC1", "note": "[Compound 163]", "IC50": "< 1000"}
{"smiles": "CC1(CN)CCN(c2cnc3c(N4CCc5c(C#N)cccc54)n[nH]c3n2)CC1", "note": "[Compound 164]", "IC50": "< 1000"}
{"smiles": "CC1CCN(c2n[nH]c3nc(N4CCC(C)(CN)CC4)cnc23)c2ccc(-c3ncn[nH]3)cc21", "note": "(centres unmarked) [Compound 165]", "IC50": "< 1000"}
{"smiles": "CC1(CNC(=O)OCCSSCCOC(=O)NCC2(C)CCN(c3cnc4c(N5CCCc6ncccc65)n[nH]c4n3)CC2)CCN(c2cnc3c(N4CCCc5ncccc54)n[nH]c3n2)CC1", "note": "[Compound 166, disulfanediylbis(ethane-2,1-diyl) bis(((1-(3-(3,4-dihydro-1,5-naphthyridin-1(2H)-yl)-1H-pyrazolo[3,4-b]pyrazin-6-yl)-4-methylpiperidin-4-yl)methyl)carbamate)]", "IC50": "< 1000"}
{"smiles": "NC[C@H]1CCN(c2cnc3c(N4CCCc5ncccc54)n[nH]c3n2)[C@H](c2ccccc2)C1", "note": "[Compound 167]", "IC50": "1000 to 10000"}
{"smiles": "NC[C@@H]1CCN(c2cnc3c(N4CCCc5ncccc54)n[nH]c3n2)[C@@H](c2ccccc2)C1", "note": "[Compound 168]", "IC50": "1000 to 10000"}
{"smiles": "CC1c2ccccc2CCN1c1n[nH]c2nc(N3CCC(C)(CN)CC3)cnc12", "note": "(centres unmarked) [Compound 169]", "IC50": "< 1000"}
{"smiles": "C[C@H]1c2ccccc2CN1c1n[nH]c2nc(N3CCC(C)(CN)CC3)cnc12", "note": "[Compound 170]", "IC50": "< 1000"}
{"smiles": "CC1CCN(c2n[nH]c3nc(N4CCC(CN)(CC(=O)O)CC4)cnc23)c2cccnc21", "note": "(centres unmarked) [Compound 171, 2-[4-(aminomethyl)-1-[3-(4-methyl-1,2,3,4-tetrahydro-1,5-naphthyridin-1-yl)-1H-pyrazolo[3,4-b]pyrazin-6-yl]piperidin-4-yl]acetic acid]", "IC50": "1000 to 10000"}
{"smiles": "CC1(CN)CCN(c2cnc3c(N4CCCc5cc(-c6ncon6)ccc54)n[nH]c3n2)CC1", "note": "[Compound 172, (1-(3-(6-(1,2,4-oxadiazol-3-yl)-3,4-dihydroquinolin-1(2H)-yl)-1H-pyrazolo[3,4-b]pyrazin-6-yl)-4-methylpiperidin-4-yl)methanamine]", "IC50": "< 1000"}
{"smiles": "CC1(CN)CCN(c2cnc3c(N4CCc5c(-c6nccs6)cccc54)n[nH]c3n2)CC1", "note": "[Compound 173]", "IC50": "< 1000"}
{"smiles": "COC(=O)NCC1(C)CCN(c2cnc3c(N4CCCc5cc(C#N)ccc54)n[nH]c3n2)CC1", "note": "[Compound 174, methyl ((1-(3-(6-cyano-3,4-dihydroquinolin-1(2H)-yl)-1H-pyrazolo[3,4-b]pyrazin-6-yl)-4-methylpiperidin-4-yl)methyl)carbamate]", "IC50": "≥ 10000"}
{"smiles": "CC1(CN)CCN(c2cnc3c(N4CCCc5nc(C(N)=O)ccc54)n[nH]c3n2)CC1", "note": "[Compound 175, 5-(6-(4-(aminomethyl)-4-methylpiperidin-1-yl)-1H-pyrazolo[3,4-b]pyrazin-3-yl)-5,6,7,8-tetrahydro-1,5-naphthyridine-2-carboxamide]", "IC50": "< 1000"}
{"smiles": "NCC1(CN)CCN(c2cnc3c(N4CCCc5ncccc54)n[nH]c3n2)CC1", "note": "[Compound 177, 1-[4-(aminomethyl)-1-[3-(1,2,3,4-tetrahydro-1,5-naphthyridin-1-yl)-1H-pyrazolo[3,4-b]pyrazin-6-yl]piperidin-4-yl]methanamine dihydrochloride]", "IC50": "< 1000"}
{"smiles": "NC(C(=O)O)C1CCN(c2cnc3c(N4CCCc5ncccc54)n[nH]c3n2)CC1", "note": "(centres unmarked) [Compound 178, 2-amino-2-{1-[3-(1,2,3,4-tetrahydro-1,5-naphthyridin-1-yl)-1H-pyrazolo[3,4-b]pyrazin-6-yl]piperidin-4-yl}acetic acid dihydrochloride]", "IC50": "1000 to 10000"}
{"smiles": "NCC1(N)CCN(c2cnc3c(N4CCCc5ncccc54)n[nH]c3n2)CC1", "note": "[Compound 179]", "IC50": "< 1000"}
{"smiles": "NCC1(C(N)=O)CCN(c2cnc3c(N4CCCc5ncccc54)n[nH]c3n2)CC1", "note": "[Compound 180, 4-(aminomethyl)-1-(3-(3,4-dihydro-1,5-naphthyridin-1(2H)-yl)-1H-pyrazolo[3,4-b]pyrazin-6-yl)piperidine-4-carboxamide]", "IC50": "< 1000"}
{"smiles": "CC1(CN)CCN(c2cnc3c(N4CCC(C(F)F)c5cc(C#N)ccc54)n[nH]c3n2)CC1", "note": "(centres unmarked) [Compound 181, 1-{6-[4-(aminomethyl)-4-methylpiperidin-1-yl]-1H-pyrazolo[3,4-b]pyrazin-3-yl}-4-(difluoromethyl)-1,2,3,4-tetrahydroquinoline-6-carbonitrile]", "IC50": "< 1000"}
{"smiles": "Cn1cc(-c2ccc3c(n2)CCCN3c2n[nH]c3nc(N4CCC(C)(CN)CC4)cnc23)cn1", "note": "[Compound 182]", "IC50": "< 1000"}
{"smiles": "C[C@H]1CCN(c2n[nH]c3nc(N4CCC(C)(CN)CC4)cnc23)c2ccc(-c3ncon3)cc21", "note": "[Compound 183, 1-(4-methyl-1-{3-[(4S)-4-methyl-6-(1,2,4-oxadiazol-3-yl)-1,2,3,4-tetrahydroquinolin-1-yl]-1H-pyrazolo[3,4-b]pyrazin-6-yl}piperidin-4-yl)methanamine]", "IC50": "< 1000"}
{"smiles": "CC1(CN)CCN(c2cnc3c(N4CCCc5c4cccc5S(C)(=O)=O)n[nH]c3n2)CC1", "note": "[Compound 185]", "IC50": "< 1000"}
{"smiles": "CN1CCN(c2n[nH]c3nc(N4CCC(C)(CN)CC4)cnc23)c2cccnc21", "note": "[Compound 186]", "IC50": "< 1000"}
{"smiles": "CC(=O)N1CCN(c2n[nH]c3nc(N4CCC(C)(CN)CC4)cnc23)c2ccc(C#N)cc21", "note": "[Compound 187]", "IC50": "< 1000"}
{"smiles": "Cn1cc(-c2ccc3c(n2)OCCN3c2n[nH]c3nc(N4CCC(C)(CN)CC4)cnc23)cn1", "note": "[Compound 188]", "IC50": "< 1000"}
{"smiles": "CNC(=O)N1CCN(c2n[nH]c3nc(N4CCC(C)(CN)CC4)cnc23)c2ccccc21", "note": "[Compound 189]", "IC50": "< 1000"}
{"smiles": "CC1(CN)CCN(c2cnc3c(N4CCNc5ccccc54)n[nH]c3n2)CC1", "note": "[Compound 190]", "IC50": "< 1000"}
{"smiles": "CSc1cccc2c1CCCN2c1n[nH]c2nc(N3CCC(C)(CN)CC3)cnc12", "note": "[Compound 191]", "IC50": "< 1000"}
{"smiles": "C[S+]([O-])c1cccc2c1CCCN2c1n[nH]c2nc(N3CCC(C)(CN)CC3)cnc12", "note": "(centres unmarked) [Compound 192]", "IC50": "< 1000"}
{"smiles": "CCC(=O)N1CCN(c2n[nH]c3nc(N4CCC(C)(CN)CC4)cnc23)c2ccccc21", "note": "[Compound 193]", "IC50": "< 1000"}
{"smiles": "CC1(CN)CCN(c2cnc3c(N4CCN(C(=O)CO)c5ccccc54)n[nH]c3n2)CC1", "note": "[Compound 194, 1-(4-(6-(4-(aminomethyl)-4-methylpiperidin-1-yl)-1H-pyrazolo[3,4-b]pyrazin-3-yl)-3,4-dihydroquinoxalin-1(2H)-yl)-2-hydroxyethan-1-one]", "IC50": "< 1000"}
{"smiles": "CN1CCN(c2n[nH]c3nc(N4CCC(C)(CN)CC4)cnc23)c2ccc(Cl)nc21", "note": "[Compound 195]", "IC50": "< 1000"}
{"smiles": "C[C@H]1CCN(c2n[nH]c3nc(N4CCC(C)(CN)CC4)cnc23)c2ccc(-c3nnc[nH]3)nc21", "note": "[Compound 198, 1-(4-methyl-1-{3-[(4S)-4-methyl-6-(4H-1,2,4-triazol-3-yl)-1,2,3,4-tetrahydro-1,5-naphthyridin-1-yl]-1H-pyrazolo[3,4-b]pyrazin-6-yl}piperidin-4-yl)methanamine]", "IC50": "< 1000"}
{"smiles": "C[C@@H]1CCN(c2n[nH]c3nc(N4CCC(C)(CN)CC4)cnc23)c2ccc(-c3nnc[nH]3)nc21", "note": "[Compound 199, 1-(4-methyl-1-{3-[(4R)-4-methyl-6-(4H-1,2,4-triazol-3-yl)-1,2,3,4-tetrahydro-1,5-naphthyridin-1-yl]-1H-pyrazolo[3,4-b]pyrazin-6-yl}piperidin-4-yl)methanamine]", "IC50": "< 1000"}
